For one series, the target named is T1, BAG3 full-length (Homo sapiens, UniProt O95817).
T1 construct: both the full-length BAG3 protein and its BAG domain; purchased Novus Biologicals (Littleton, CO, USA)
Briefly: SPR assay on BAG3 full-length protein. The conditions noted are these: Biacore T200, 0 to 100 µM, 25 °C, 1:1 interaction model, n.b. = no binding; for Kd: read-out: BAG3 FULL KD (µM) ± SD. As to the method:
(§1) In this study, we employed SPR experiments to evaluate the interactions between synthesized compounds (1–14) and both the full-length BAG3 protein and its BAG domain. Only the compounds that successfully bound to the full-length BAG3 protein were tested for their interaction with the BAG domain. Protein immobilization was achieved using the amide coupling method, and the compounds were tested at ten different concentrations, ranging from 0 to 100 µM. A known binder of BAG3-BD, LK4 ((Z)-ethyl 2-(5-(3,4-dihydroxybenzylidene)-2,4-dioxothiazolidin-3yl)acetate), was used as a positive control. […] Compound 14 also bound the target but with slightly higher KD values, still within the micromolar range. The three identified compounds were further investigated to understand whether this binding induced an effect on BAG3 protein functions. The KD values reported in Table 1 for the known inhibitor LK4 differ from those in previous studies due to the use of a newer-generation instrument for the SPR experiments. The earlier experiments utilized the Biacore 3000, whereas the current study employed the Biacore T200. While ligand binding was confirmed in both sets of experiments, the slightly different KD values are attributed to the enhanced sensitivity of the Biacore T200.
(§2) Recombinant human BAG3 protein (Bcl2-associated athanogene 3) was sourced from Novus Biologicals (Littleton, CO, USA), while the BAG3 domain (BAG3-BD) was procured from ARETA International S.r.l. (Gerenzano, Italy). We utilized (Z)-ethyl 2-(5-(3,4-dihydroxybenzylidene)-2,4-dioxothiazolidin-3-yl)acetate (LK4), a known BAG3 inhibitor previously identified by our group. Surface Plasmon Resonance (SPR) spectroscopy was employed to assess the affinity of synthesized molecules for BAG3 and BAG-BD using a Biacore T200 optical biosensor equipped with CM5 sensor chips (Cytiva, Marlborough, MA, USA). BAG3 and BAG-BD were immobilized on the CM5 sensor chip using standard amine-coupling protocols. BAG3 protein (0.067 μg/μL in 10 mM CH3COONa, pH 4.5) was immobilized at a flow rate of 10 μL/min, resulting in a density of 14 kRU. The BAG3 domain (0.38 μg/μL in 10 mM CH3COONa, pH 4.5) was immobilized under similar conditions, achieving a density of 4 kRU. For the experiments, BAG3 and BAG-BD surfaces, along with an unmodified reference surface, were prepared for simultaneous analyses.
Compounds 1–14 and LK4 were dissolved to 10 mM in 100% DMSO and then diluted 1:20 (v/v) in PBS-P buffer (0.2 M phosphate buffer, 27 mM KCl, 1.37 M NaCl, 0.5% surfactant P20) to achieve a final DMSO concentration of 5.0%. These compounds were injected in a concentration series (1:2 dilution, 10 different concentrations) ranging from 0 to 100 μM, prepared in 96-well plates. SPR experiments were conducted at 25 °C with a flow rate of 20 μL/min, featuring 90 s of association and 400 s of dissociation monitoring. Changes in mass, reflected as resonance units (RU), were recorded to determine binding responses. KD values were calculated using Biaevaluation software 3.2 by globally fitting the double-referenced association and dissociation data to a 1:1 interaction model. See Supplementary Materials for all the sensorgrams (Figures S43–S50).

In a further series the test system is HeLa cells. Briefly: MTT cell viability assay on HeLa cells. The following applies: 72 h. It is filed as cell-based. On the procedure: Elevated expression levels of BAG3 are strongly associated with signaling pathways in various types of malignant cells; consequently, reducing the activity of this co-chaperone inhibits cell proliferation, triggers apoptosis, and induces cell cycle arrest. To assess the activity of compounds 10, 12, and 14, cytotoxicity assays were performed on HeLa cells, which were chosen for their tendency to overexpress BAG3 proteins. MTT assays were conducted by exposing HeLa cells to different concentrations of the compounds (25, 50, and 100 µM) for 72 h. Additionally, 10% DMSO was used as a positive control, while 0.1% DMSO served as a negative control. […] The next step involved the assessment of the cytotoxicity of the most promising candidate, 10, on healthy cells to determine its safety profile. To achieve this, MTT assays were conducted on HaCat cells over 72 h.
Human cervical carcinoma cell lines (HeLa, kindly donated by Prof. Ornella Moltedo, Department of Pharmacy, University of Salerno) and immortalized human keratinocytes (HaCaT) were cultured in a DMEM/high glucose medium. This medium was supplemented with 10% FBS (v/v), 2 mM/L glutamine, 100 U/mL penicillin, and […] streptomycin. The cells were maintained at 37 °C in a humidified atmosphere with 5% CO2. To ensure logarithmic growth, the cells were sub-cultured every 2 days.
Cell viability was assessed by measuring mitochondrial metabolic activity using a colorimetric assay, which involves the reduction of 3-[4,5-dimethylthiazol-2,5-diphenyl-2H-tetrazolium bromide (MTT) to purple formazan. Stock solutions of compounds 10, 12, and 14 (50 mM in DMSO) were stored at −20 °C in the dark and diluted just before being added to the sterile culture medium. Briefly, HeLa cells (3.5 × 10^3 cells/well) were seeded in triplicate in 96-well plates, and after 24 h, to allow for attachment, the cells were treated with various concentrations of the tested compounds (25, 50 and 100 μM), 0.1% (v/v) DMSO as a negative control, and 10% (v/v) DMSO as a positive control for 72 h. Following treatment, 20 μL of MTT (5 mg/mL in PBS) was added to each well, and the cells were incubated for an additional 3 h at 37 °C. The formazan crystals formed were then dissolved in 100 μL of a buffer containing 50% (v/v) N, N-dimethylformamide and 20% SDS (pH 4.5). Absorbance was measured at 570 nm using a Multiskan™ GO Microplate Spectrophotometer (Thermo Fisher Scientific, Waltham, MA, USA,). […] The IC50 values, representing the concentration causing 50% inhibition of cell survival, were calculated and compared to control cells treated with DMSO using GraphPad Prism 8.0 software through nonlinear regression of dose–response inhibition. Only for compound 10 was the IC50 also assessed on HaCaT cells (5.0 × 10^3 cells/well) after 72 h of treatment.
Background: Tetrazolium assays rely on reduction of a dye to a coloured formazan, in cell work by metabolically active cells.

For a further series, the target named is T2, BAG3-BD (Homo sapiens, UniProt O95817).
T2 construct: the BAG3 domain (BAG3-BD) was procured from ARETA International S.r.l; purchased ARETA International S.r.l; (Gerenzano, Italy)
T2 sequence (O95817 421-498 limits assumed): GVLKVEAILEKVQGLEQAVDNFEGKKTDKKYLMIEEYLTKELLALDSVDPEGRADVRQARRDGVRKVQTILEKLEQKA
Briefly: SPR assay on BAG domain of BAG3 (BAG3-BD). It is filed as binding. The following applies: Biacore T200, 0 to 100 µM, 25 °C, 1:1 interaction model, read-out: BAG DOMAIN KD (µM) ± SD. As to the method:
as §1
as §2, with “For the experiments, BAG3 and BAG-BD surfaces, along with an unmodified reference surface, were prepared for simultaneous analyses.” left out
Compounds 1–14 and LK4 were dissolved to 10 mM in 100% DMSO and then diluted 1:20 (v/v) in PBS-P buffer (0.2 M phosphate buffer, 27 mM KCl, 1.37 M NaCl, 0.5% surfactant P20) to achieve a final DMSO concentration of 5.0%. […] Changes in mass, reflected as resonance units (RU), were recorded to determine binding responses. KD values were calculated using Biaevaluation software 3.2 by globally fitting the double-referenced association and dissociation data to a 1:1 interaction model. […]
On the technique in general: SPR reads the build-up and loss of mass on a sensor chip optically.

T1 sequence (O95817 whole entry, the tested form may be a part): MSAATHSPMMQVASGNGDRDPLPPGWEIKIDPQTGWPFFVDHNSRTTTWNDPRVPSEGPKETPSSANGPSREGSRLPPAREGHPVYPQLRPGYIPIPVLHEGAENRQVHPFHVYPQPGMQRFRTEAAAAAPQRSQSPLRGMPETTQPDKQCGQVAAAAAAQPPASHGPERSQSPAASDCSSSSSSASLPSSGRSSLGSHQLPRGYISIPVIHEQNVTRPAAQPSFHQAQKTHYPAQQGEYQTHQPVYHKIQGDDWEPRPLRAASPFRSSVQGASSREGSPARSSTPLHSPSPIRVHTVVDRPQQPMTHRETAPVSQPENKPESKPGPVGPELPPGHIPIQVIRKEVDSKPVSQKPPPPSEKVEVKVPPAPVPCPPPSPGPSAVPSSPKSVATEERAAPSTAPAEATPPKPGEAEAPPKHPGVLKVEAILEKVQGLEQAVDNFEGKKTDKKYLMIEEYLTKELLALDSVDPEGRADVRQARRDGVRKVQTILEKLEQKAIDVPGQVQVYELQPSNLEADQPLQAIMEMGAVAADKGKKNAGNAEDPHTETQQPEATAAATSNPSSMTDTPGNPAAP

Take `CCc1nc2ccc(Br)cn2c1NC1CCCCC1` [Compound 6, 6-bromo-N-cyclohexyl-2-ethylimidazo[1,2-a]pyridin-3-amine]: the “BAG3 FULL KD (µM) ± SD” value on BAG3 full-length was “n.b”.

`COc1ccc(Nc2c(-c3cc(OC)ccc3F)nc3cc(C)ccn23)cc1` [Compound 13, 2-(2-fluoro-5-methoxyphenyl)-N-(4-methoxyphenyl)-7-methylimidazo[1,2-a]pyridin-3-amine]: the “BAG3 FULL KD (µM) ± SD” value on BAG3 full-length was “n.b”.

As to `CCCCNc1c(-c2ccccc2)nc2ccccn12` [Compound 3, N-butyl-2-phenylimidazo[1,2-a]pyridin-3-amine], the “BAG3 FULL KD (µM) ± SD” value at BAG3 full-length is given as “n.b”.

For `CCc1ccc(-c2nc3cc(Br)ccn3c2Nc2ccc3ccccc3c2)cc1` [Compound 9, 7-bromo-2-(4-ethylphenyl)-N-(naphthalen-2-yl)imidazo[1,2-a]pyridin-3-amine], the “BAG3 FULL KD (µM) ± SD” value at BAG3 full-length is recorded as “n.b”.

Consider `Clc1ccc2nc(-c3ccccc3Br)c(Nc3ccc4ccccc4c3)n2c1` [Compound 12, 2-(2-bromophenyl)-6-chloro-N-(naphthalen-2-yl)imidazo[1,2-a]pyridin-3-amine], for which the mortality (usually the percentage killed) at 25 µM in the series with HeLa cells (Homo sapiens, 25 µM) worked out at 40%. Further, the mortality at 100 µM in the series on HeLa cells (Homo sapiens) was found to be 60%. The IC50 (as a rule, the concentration that gives 50% inhibition) in the series with HeLa cells (Homo sapiens, seven concentrations (1 to 100 µM)) worked out at 38.9 ± 3.49 µM. The Kd – broadly, the constant that tells how readily two partners part at equilibrium – on BAG3-BD was 14.7 ± 2.69 µM; at BAG3 full-length, 20.7 ± 0.42 µM.

Consider `CCc1ccc(-c2nc3cc(Br)ccn3c2NC(C)C)cc1` [Compound 7, 7-bromo-2-(4-ethylphenyl)-N-isopropylimidazo[1,2-a]pyridin-3-amine], for which, at BAG3 full-length, the “BAG3 FULL KD (µM) ± SD” value is reported as “n.b”.

Regarding `CCCCNc1c(CC)nc2ccccn12` [Compound 4, N-butyl-2-ethylimidazo[1,2-a]pyridin-3-amine], on BAG3 full-length, the “BAG3 FULL KD (µM) ± SD” value is “n.b”.

For `CCOC(=O)CN1C(=O)S/C(=C\c2ccc(O)c(O)c2)C1=O` [LK4, (Z)-ethyl 2-(5-(3,4-dihydroxybenzylidene)-2,4-dioxothiazolidin-3yl)acetate, reference compound], the figures for the Kd on BAG3-BD and on BAG3 full-length were 0.18 ± 0.02 µM and 19.9 ± 6.58 µM, respectively.

Consider `c1ccc(-c2nc3ccccn3c2NC2CCCCC2)cc1` [Compound 1, N-cyclohexyl-2-phenylimidazo[1,2-a]pyridin-3-amine], for which the “BAG3 FULL KD (µM) ± SD” value at BAG3 full-length was “n.b. ^a”.

As for `CCc1ccc(-c2nc3ccc(Cl)cn3c2NC(C)C)cc1` [Compound 11, 6-chloro-2-(4-ethylphenyl)-N-isopropylimidazo[1,2-a]pyridin-3-amine], the “BAG3 FULL KD (µM) ± SD” value at BAG3 full-length is recorded as “n.b”.

`COc1ccc(F)c(-c2nc3cc(C)ccn3c2NCc2ccccc2)c1` [Compound 14, N-benzyl-2-(2-fluoro-5-methoxyphenyl)-7-methylimidazo[1,2-a]pyridin-3-amine]: the mortality entry with HeLa cells (25 µM) was “lost its effect”. For the same molecule, the mortality at 100 µM in the series with HeLa cells (Homo sapiens) stood at 50%. Moreover, the dissociation constant Kd came out at 16.9 ± 5.87 µM on BAG3-BD and 76.2 ± 5.44 µM on BAG3 full-length.

As to `Brc1ccn2c(Nc3ccc4ccccc4c3)c(-c3ccccc3Br)nc2c1` [Compound 8, 7-bromo-2-(2-bromophenyl)-N-(naphthalen-2-yl)imidazo[1,2-a]pyridin-3-amine], the “BAG3 FULL KD (µM) ± SD” value at BAG3 full-length was “n.b”.

On to `CCc1nc2ccccn2c1NC1CCCCC1` [Compound 2, N-cyclohexyl-2-ethylimidazo[1,2-a]pyridin-3-amine], for which the “BAG3 FULL KD (µM) ± SD” value at BAG3 full-length is listed as “n.b”.

As to `Brc1ccc2nc(-c3ccccc3)c(NC3CCCCC3)n2c1` [Compound 5, 6-bromo-N-cyclohexyl-2-phenylimidazo[1,2-a]pyridin-3-amine], the “BAG3 FULL KD (µM) ± SD” value at BAG3 full-length is “n.b”.
